Reference: ChEMBL document CHEMBL1201862, “PubChem BioAssay data set” (2004)
The source made the active and inactive calls.

Key:
[1] = Luminescence Cell-Based Dose Retest to Confirm Inhibitors of Cancer Stem Cells. [Related pubchem assays (depositor defined):AID2717, AID2721]; assay type: functional; details: Homo sapiens
[2] = viability of uninfected HEp-2 cells – cell-based, HTS, cytotoxicity control for RSV inhibitor project, dose response (AID 2410); assay type: functional; details: human respiratory syncytial virus
Protein skinhead-1 = molecular target: T1, Protein skinhead-1 (Caenorhabditis elegans, UniProt P34707); assay type: functional
T1 sequence (P34707 whole entry): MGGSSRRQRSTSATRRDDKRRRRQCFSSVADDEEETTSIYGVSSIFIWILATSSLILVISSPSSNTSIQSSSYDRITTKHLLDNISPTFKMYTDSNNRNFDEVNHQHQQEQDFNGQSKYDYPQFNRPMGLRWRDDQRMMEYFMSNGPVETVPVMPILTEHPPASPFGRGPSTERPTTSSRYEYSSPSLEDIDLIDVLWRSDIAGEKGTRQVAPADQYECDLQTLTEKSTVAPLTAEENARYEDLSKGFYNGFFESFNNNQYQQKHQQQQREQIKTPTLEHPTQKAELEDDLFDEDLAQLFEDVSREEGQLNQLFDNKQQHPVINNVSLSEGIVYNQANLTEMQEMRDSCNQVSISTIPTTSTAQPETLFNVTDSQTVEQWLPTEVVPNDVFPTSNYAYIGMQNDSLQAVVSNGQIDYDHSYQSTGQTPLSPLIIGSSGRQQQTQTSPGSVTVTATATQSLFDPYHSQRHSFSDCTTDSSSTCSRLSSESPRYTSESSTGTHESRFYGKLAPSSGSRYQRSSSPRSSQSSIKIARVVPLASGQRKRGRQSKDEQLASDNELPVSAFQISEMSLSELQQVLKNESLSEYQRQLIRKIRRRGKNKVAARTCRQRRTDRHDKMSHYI

H9c2 = test: cells; assay type: functional, cell-based; details: Rattus norvegicus, H9c2, Myocardium;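 further: confirmatory concentration-response retest of ultra-high-throughput screening hits for modulation of myocardial damage; cell death induced by hydrogen peroxide oxidative stress; compound pretreatment for 60 min then peroxide exposure for 2 h; potency is for protecting the cells against peroxide damage rather than for killing them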
[3] = molecular target: T2, Heat shock factor protein 1 (Mus musculus, UniProt P38532); test: decrease of HSF1-responsive luciferase luminescence – cell-based, NIH3T3, dose retest, confirmation (AID 2382); assay type: functional;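 further: NIH3T3 fibroblasts with HSF1-driven luciferase reporter stressed by proteasome inhibitor MG132; luminescence from HSF1-driven luciferase expression after 8 hours of MG132 stress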
T2 sequence (P38532 whole entry): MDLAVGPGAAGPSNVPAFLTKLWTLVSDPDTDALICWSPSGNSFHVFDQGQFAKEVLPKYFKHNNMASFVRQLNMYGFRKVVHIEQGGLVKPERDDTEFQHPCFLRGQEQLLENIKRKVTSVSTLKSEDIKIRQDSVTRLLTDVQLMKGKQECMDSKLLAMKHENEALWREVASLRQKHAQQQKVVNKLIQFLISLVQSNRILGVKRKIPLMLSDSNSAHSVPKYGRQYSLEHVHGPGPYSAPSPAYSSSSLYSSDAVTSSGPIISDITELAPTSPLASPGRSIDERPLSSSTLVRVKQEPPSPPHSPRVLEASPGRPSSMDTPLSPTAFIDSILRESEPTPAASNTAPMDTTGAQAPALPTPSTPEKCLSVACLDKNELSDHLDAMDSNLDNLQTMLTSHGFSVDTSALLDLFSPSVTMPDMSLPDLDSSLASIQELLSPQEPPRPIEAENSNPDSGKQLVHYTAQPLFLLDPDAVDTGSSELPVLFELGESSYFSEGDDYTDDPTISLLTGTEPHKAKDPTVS

Cytochrome P450 2D6 = Cytochrome P450 2D6 (Homo sapiens, UniProt P10635);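 further: CYP2D6 member of a cytochrome P450 panel assay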
Cytochrome P450 3A4 = Cytochrome P450 3A4 (Homo sapiens, UniProt P08684);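 further: CYP3A4 tested as one member of a cytochrome P450 panel screen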
Paired box protein Pax-8 = Paired box protein Pax-8 (Homo sapiens, UniProt Q06710); test: PAX8 transcriptional activity inhibition in RMG-I – RMG-I cells, luciferase, cherry-pick, dose response (AID 687027); assay type: functional, cell-based;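 further: luciferase reporter driven by Pax8 target thyroperoxidase promoter measured by SteadyGlo luminescence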
[4] = Luminescence Cell-Based Dose Response HTS to Identify Inhibitors of 5'UTR Stem-Loop Driven Prion Protein mRNA Translation in H4 Neuroglioblastoma Cells. [Related pubchem assays: 1827 (Project Summary), 1813 (Primary HTS)]; assay type: functional
[5] = luciferase reporter signal suppression in cells – H4 neuroglioma cells, luminescence, dose response (AID 1990); assay type: functional, cell-based
[6] = alpha-synuclein stem-loop luciferase translation blockers – H4 neuroglioma cells, luminescence, confirmation (AID 1988); assay type: functional, cell-based
Protein RecA = molecular target: T3, Protein RecA (Mycobacterium tuberculosis, UniProt P9WHJ3); test: Fluorescence Cell-Free Homogeneous Dose Retest to Identify Inhibitors of RecA-Intein Splicing Activity. [Related pubchem assays (depositor defined):AID2097, AID2223, AID489010, AID492950]; assay type: functional
T3 sequence (P9WHJ3 whole entry): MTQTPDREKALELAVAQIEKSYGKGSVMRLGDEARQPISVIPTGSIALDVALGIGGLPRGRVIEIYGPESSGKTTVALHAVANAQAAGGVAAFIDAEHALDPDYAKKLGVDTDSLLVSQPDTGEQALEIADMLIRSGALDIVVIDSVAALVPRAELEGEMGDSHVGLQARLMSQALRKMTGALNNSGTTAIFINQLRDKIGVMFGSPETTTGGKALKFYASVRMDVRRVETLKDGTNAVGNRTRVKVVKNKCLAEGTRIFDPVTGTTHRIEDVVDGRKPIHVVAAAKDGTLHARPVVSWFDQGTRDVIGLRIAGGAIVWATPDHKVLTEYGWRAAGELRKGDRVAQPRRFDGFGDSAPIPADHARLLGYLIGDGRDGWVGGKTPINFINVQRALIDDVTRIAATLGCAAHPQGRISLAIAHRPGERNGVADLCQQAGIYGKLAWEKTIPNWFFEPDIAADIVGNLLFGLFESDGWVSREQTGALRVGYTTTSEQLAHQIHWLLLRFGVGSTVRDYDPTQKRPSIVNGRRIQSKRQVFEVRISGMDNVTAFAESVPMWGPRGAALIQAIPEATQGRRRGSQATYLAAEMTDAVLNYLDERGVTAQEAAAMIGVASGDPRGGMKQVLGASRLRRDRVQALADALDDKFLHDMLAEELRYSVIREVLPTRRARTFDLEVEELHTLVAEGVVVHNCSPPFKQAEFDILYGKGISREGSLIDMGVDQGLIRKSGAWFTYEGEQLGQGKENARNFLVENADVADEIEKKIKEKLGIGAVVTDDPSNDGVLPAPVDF

[7] = molecular target: T4, Replicative DNA helicase DnaB (Mycobacterium tuberculosis, UniProt P9WMR3); test: DnaB intein splicing inhibitors, dose response, biochemical, cell-free fluorescence (AID 449749); assay type: functional
T4 sequence (P9WMR3 whole entry): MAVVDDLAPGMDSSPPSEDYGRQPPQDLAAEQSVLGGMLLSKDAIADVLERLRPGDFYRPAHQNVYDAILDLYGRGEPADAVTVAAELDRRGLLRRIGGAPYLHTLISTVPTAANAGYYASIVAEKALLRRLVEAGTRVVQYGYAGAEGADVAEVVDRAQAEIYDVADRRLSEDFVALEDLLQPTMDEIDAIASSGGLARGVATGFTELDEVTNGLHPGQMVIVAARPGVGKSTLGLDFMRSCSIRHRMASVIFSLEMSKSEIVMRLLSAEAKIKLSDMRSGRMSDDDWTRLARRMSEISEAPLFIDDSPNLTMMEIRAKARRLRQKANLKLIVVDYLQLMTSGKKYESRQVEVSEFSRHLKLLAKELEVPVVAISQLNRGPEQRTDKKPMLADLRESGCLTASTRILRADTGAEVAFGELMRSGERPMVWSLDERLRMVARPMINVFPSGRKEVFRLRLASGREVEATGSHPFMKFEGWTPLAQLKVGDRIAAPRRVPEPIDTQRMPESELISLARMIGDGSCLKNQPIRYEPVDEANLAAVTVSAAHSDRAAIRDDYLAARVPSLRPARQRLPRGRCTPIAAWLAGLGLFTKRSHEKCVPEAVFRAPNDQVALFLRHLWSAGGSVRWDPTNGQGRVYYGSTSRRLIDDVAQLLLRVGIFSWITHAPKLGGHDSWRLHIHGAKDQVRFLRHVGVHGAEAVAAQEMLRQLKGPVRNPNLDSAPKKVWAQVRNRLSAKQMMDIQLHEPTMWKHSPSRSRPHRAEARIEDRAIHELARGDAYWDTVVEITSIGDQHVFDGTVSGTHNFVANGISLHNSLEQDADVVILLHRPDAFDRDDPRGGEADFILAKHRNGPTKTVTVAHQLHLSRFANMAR

[8] = P. falciparum Dd2 growth inhibitors, dose response, SYBR Green, cherry-picked samples (AID 1159567); assay type: functional, cell-based

Sequence of Paired box protein Pax-8 (Q06710 whole entry): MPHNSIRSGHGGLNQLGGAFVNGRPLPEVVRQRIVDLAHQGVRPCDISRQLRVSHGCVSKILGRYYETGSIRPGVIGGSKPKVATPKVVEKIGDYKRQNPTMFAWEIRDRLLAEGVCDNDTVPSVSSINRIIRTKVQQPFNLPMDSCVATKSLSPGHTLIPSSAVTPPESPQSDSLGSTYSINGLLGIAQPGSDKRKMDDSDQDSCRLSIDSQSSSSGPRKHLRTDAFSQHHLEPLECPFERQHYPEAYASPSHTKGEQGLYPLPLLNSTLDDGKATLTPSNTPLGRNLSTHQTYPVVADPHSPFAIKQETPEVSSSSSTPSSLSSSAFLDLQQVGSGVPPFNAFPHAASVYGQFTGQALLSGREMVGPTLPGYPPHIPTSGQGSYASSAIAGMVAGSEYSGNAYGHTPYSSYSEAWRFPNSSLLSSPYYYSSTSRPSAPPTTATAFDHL
Sequence of Cytochrome P450 2D6 (P10635 whole entry): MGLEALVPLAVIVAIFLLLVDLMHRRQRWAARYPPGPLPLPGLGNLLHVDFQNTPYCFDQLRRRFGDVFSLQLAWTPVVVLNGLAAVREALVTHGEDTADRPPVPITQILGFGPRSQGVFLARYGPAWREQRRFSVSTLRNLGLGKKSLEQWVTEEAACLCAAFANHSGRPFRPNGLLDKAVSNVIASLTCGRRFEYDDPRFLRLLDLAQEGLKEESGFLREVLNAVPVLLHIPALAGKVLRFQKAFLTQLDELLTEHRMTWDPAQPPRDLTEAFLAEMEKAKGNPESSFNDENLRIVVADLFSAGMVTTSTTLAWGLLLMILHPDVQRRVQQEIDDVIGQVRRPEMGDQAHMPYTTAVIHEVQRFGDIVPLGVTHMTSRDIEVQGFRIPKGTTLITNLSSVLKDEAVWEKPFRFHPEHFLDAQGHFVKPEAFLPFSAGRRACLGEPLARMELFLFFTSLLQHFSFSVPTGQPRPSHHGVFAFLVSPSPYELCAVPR
Sequence of Cytochrome P450 3A4 (P08684 whole entry): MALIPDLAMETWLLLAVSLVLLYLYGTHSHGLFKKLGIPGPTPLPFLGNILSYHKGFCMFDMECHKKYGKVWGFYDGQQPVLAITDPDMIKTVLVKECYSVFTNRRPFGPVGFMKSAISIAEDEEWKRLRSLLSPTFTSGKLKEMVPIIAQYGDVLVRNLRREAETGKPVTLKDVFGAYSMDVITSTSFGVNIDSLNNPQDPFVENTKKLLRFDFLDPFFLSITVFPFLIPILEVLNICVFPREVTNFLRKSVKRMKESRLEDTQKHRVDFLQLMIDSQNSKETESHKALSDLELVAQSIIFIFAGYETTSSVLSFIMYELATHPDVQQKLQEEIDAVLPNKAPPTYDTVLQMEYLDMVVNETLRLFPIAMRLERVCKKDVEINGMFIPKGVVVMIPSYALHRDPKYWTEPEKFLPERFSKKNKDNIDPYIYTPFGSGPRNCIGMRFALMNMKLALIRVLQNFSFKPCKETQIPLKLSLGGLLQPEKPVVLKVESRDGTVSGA

O=C(Nc1ccc(NC(=S)NC(=O)c2ccccc2Cl)cc1)c1cccc(Cl)c1
AC50 [1]: 3.26 µM (active)
CC50 [2]: > 50 µM (active)

O=C1C2C(C(=O)N1Cc1cccnc1)C1C=CC2C12CC2 (configuration not stated)
IC50 (Protein skinhead-1): > 100 µM (inactive)

COc1ccc(Cl)cc1-c1nc(-c2ccc(NC(=O)c3cccs3)cc2)no1
IC50 (H9c2): > 79 µM (inactive)
CC50 [2]: 23.2 µM (active)

O=C(CNC(=O)C12CC3CC(CC(C3)C1)C2)NCc1ccccc1
EC50 [3]: > 195 µM (not active)

O=Cc1ccc(OC(=O)Cc2ccc(F)cc2)cc1
EC50 [3]: > 195 µM (not active)

FC(F)(F)c1nnc2n1N=C(c1cccs1)CS2
CC50 [2]: 22.6 µM (active)

Cc1ccccc1OCC(=O)Nc1ccc([N+](=O)[O-])cc1
EC50 [3]: > 195 µM (not active)

Cc1ccc(C2=NN(S(=O)(=O)c3ccccc3)C(c3ccco3)C2)cc1 (configuration not stated)
CC50 [2]: 8.13 µM (active)

Cc1ccccc1OCCCn1c(=O)sc2ccccc21
AC50 (Cytochrome P450 2D6): 11.2 µM (inconclusive)
AC50 (Cytochrome P450 3A4): 17.8 µM (inconclusive)
CC50 [2]: 32.2 µM (active)

Cc1ccc(C2CC(=O)Oc3cc(O)ccc32)cc1 (configuration not stated)
IC50 (Protein skinhead-1): > 100 µM (inactive)

CC(=O)c1cccc(NC(=O)Nc2ccc3c(c2)N(C)C(=O)CS3)c1
IC50 (H9c2): > 79 µM (inactive)

CCCN(CCC)C(=O)CSc1nc2ccsc2c(=O)n1NC(=O)c1ccccc1
EC50 [3]: > 195 µM (not active)

CCCN(Cc1nnc(-c2ccccc2Cl)o1)C(=O)c1cc2ccccc2o1
CC50 [2]: 19.5 µM (active)

CCCCOc1ccc2c(c1)C(=O)c1cc(O)ccc1-2
CC50 [2]: 11.7 µM (active)

Cn1ncc([N+](=O)[O-])c1C(=O)Nc1ccccc1Cl
EC50 [3]: > 195 µM (not active)

COc1cccc(C(=O)Nc2ccc(C3CC3(Cl)Cl)cc2)c1 (configuration not stated)
AC50 [1]: 3.15 µM (active)

CC1CCCCC1N1CN=C(Nc2nc3ccccc3s2)NC1 (configuration not stated)
IC50 (Protein skinhead-1): > 100 µM (inactive)

COc1ccc(NS(=O)(=O)c2ccc3[nH]c(COc4ccc5ccccc5c4)nc3c2)cc1
EC50 [3]: > 195 µM (not active)

O=C(NCc1ccco1)c1cnn2c(C(F)(F)F)cc(-c3cccs3)nc12
IC50 (H9c2): 34.1 µM (inactive)

O=C1/C(=C/c2cccs2)CCC1C1CCCC1 (configuration not stated)
IC50 (Protein skinhead-1): > 100 µM (inactive)

O=C(Nc1ccc2[nH]c(-c3ccccc3)nc2c1)c1cccs1
IC50 (Protein skinhead-1): > 100 µM (inactive)

CC1(C)Cc2ccccc2C(CSc2ccccc2C(=O)O)=N1
AC50 [1]: 4.98 µM (active)

COCCn1nnnc1C(C(C)C)N(Cc1cccnc1)Cc1cc2cc(OC)ccc2nc1O (configuration not stated)
IC50 (H9c2): 21.8 µM (active)

CCc1ccccc1NC(=O)COc1cccc2ccc(C)nc12
EC50 [3]: > 195 µM (not active)

COCC(=O)Nc1sc2c(c1C(=O)OC)CCCC2
IC50 (Protein skinhead-1): > 100 µM (inactive)

CNc1nc(-c2ccccc2)nnc1C(F)(F)F
CC50 [2]: 27.7 µM (active)

COc1cc2cnc(-c3ccccc3)c(-c3cccc(C(F)(F)F)c3)c2cc1OC
AC50 [1]: 4.47 µM (active)

Cc1cnc(NC(=O)CC(C)c2ccccc2)s1 (configuration not stated)
IC50 (Protein skinhead-1): > 100 µM (inactive)

COC(=O)c1oc2ccc(Cl)cc2c1-n1cccc1
IC50 (Protein skinhead-1): > 100 µM (inactive)

Clc1ccc(C=Cc2ccccn2)cc1
IC50 (Protein skinhead-1): 5.71 µM (active)

CC(=O)NC(CCc1ccc(Cl)c(Cl)c1)c1cccc(O)c(=O)c1 (configuration not stated)
AC50 (Paired box protein Pax-8): 2.08 µM (active)
IC50 (H9c2): > 79 µM (inactive)

Cc1ccc(S(=O)(=O)N(C)C)cc1NC(=O)COC(=O)Cc1nnc(O)c2ccccc12
IC50 (H9c2): > 79 µM (inactive)

O=C(CNC(=O)c1ccc(F)cc1)N/N=C/c1cc(Br)ccc1OC(=O)/C=C/c1ccco1
EC50 [4]: 12.1 µM (active)
EC50 [5]: 11.8 µM (active)
IC50 (H9c2): 19 µM (active)
EC50 [6]: 8.72 µM (active)

CCCOc1ccc2[nH]c(C(=O)N/N=C/c3cc(OC)c(OC)c(OC)c3)cc2c1
AC50 (Paired box protein Pax-8): 2.89 µM (active)
IC50 (H9c2): > 79 µM (inactive)

Cc1[nH]c2ccccc2c1/C=N/NC(=O)c1cc(-c2ccccc2)[nH]n1
IC50 (H9c2): > 79 µM (inactive)

O=c1cc(-c2ccccc2)[nH]n1-c1ccc([N+](=O)[O-])cc1
AC50 [1]: 4.13 µM (active)
EC50 (Protein RecA): 11 µM (active)
AC50 [7]: 3.09 µM (active)

O=[N+]([O-])c1ccc(O)c(/C=N/c2ccc3oc(Cc4ccc(Cl)cc4)nc3c2)c1
EC50 [3]: > 195 µM (not active)

COc1cccc(-c2ccc3c(c2)[C@@H]2[C@@H](CCN2S(=O)(=O)c2cn(C)cn2)[C@@H](CO)N3)c1
AC50 [8]: 9.63 µM (active)

C[C@@H]1CN([C@H](C)CO)S(=O)(=O)c2ccc(C3=CCCCC3)cc2O[C@H]1CN(C)C(=O)Cc1ccncc1
AC50 [8]: 3.22 µM (active)

C[C@@H]1CN([C@@H](C)CO)C(=O)Cc2cc(NC(=O)Nc3ccccc3)ccc2O[C@H]1CN(C)CC1CC1
AC50 [8]: 8.09 µM (active)

CCC(=O)N1CC2(C1)[C@H](c1ccccc1)[C@H](CO)N2Cc1ccccc1OC
AC50 [8]: 8.35 µM (active)
